From publication PMC12113431, “Chartarlactams U-X: Novel Phenylspirodrimanes from a Marine Derived Fungus Stachybotrys sp. SZU-W23 with Anti-Inflammatory Activity Mediated by the NF-κB/ROS Signaling Pathways” (Marine Drugs, 2025)
Like-named read-outs stand apart in the source and are kept apart here. Each block holds one compound with its values, some of them ahead of it.

Key:
[1] = tested on: nitric oxide production in LPS-stimulated RAW 264.7 macrophages; experiment: Inhibition of NO production in LPS-stimulated RAW 264.7 macrophages (Griess reaction); assay type: cell-based, mouse; settings: for IC50: Mus musculus, read-out: IC50, inhibition of NO production; for NO production inhibition at 10 μM: test concentration of 10 μM; for NO production inhibition at 10 μM / NO-inhibitory effect: RAW 264.7, LPS; for NO-inhibitory effect: tested at 3 to 30 μM
Procedure: RAW 264.7 macrophages were seeded into 96-well plates at a density of 2.0 × 10^5 cells/well in complete DMEM and allowed to adhere for 2 h at 37 °C under 5% CO2. The cells were pretreated with compounds 1–15 (3–30 μM) for 2 h, followed by stimulation with ultrapure lipopolysaccharide (LPS; 100 ng/mL, from E. coli O111:B4, Sigma-Aldrich) for 24 h. NO production was assessed via the Griess reaction by quantifying nitrite (NO2^−) accumulation in culture supernatants.
Briefly, 50 μL of the cell-free supernatant from each well was mixed with 50 μL of 1% sulfanilamide (dissolved in 5% phosphoric acid; Griess Reagent A, Beyotime Biotechnology, Shanghai, China) and incubated for 5 min at room temperature. Subsequently, 50 μL of 0.1% N-1-naphthylethylenediamine dihydrochloride (Griess Reagent B, Beyotime Biotechnology) was added, followed by 5 min incubation in the dark. The absorbance was measured at 540 nm with a reference wavelength of 630 nm using a Synergy H1 microplate reader (BioTek Instruments, Winooski, VT, USA). Nitrite concentrations were interpolated from a sodium nitrite standard curve (0–100 μM; R^2 > 0.99).

[2] = tested on: NO production in LPS-activated RAW264.7 murine macrophages; design: method as in doi:10.1039/C7RA09859F; settings: read-out: IC50, inhibition of NO production; cited from earlier work
RAW 264.7 cells = experiment: Cytotoxicity, CCK-8 cell viability assay; assay type: cell-based, mouse; settings: for cytotoxicity (qualitative): tested at 3, 10 and 30 μM
Procedure: RAW 264.7 cells were seeded into 96-well plates at a density of 1.0 × 10^5 cells/well (100 μL/well) in complete DMEM (high-glucose DMEM supplemented with 10% FBS, 100 U/mL penicillin, and 100 μg/mL streptomycin) and allowed to adhere for 24 h at 37 °C under 5% CO2. Subsequently, serial dilutions of compounds (0.3–30 μM in DMSO, with the final DMSO concentration < 0.1%) were added to respective wells and incubated for 24 h. Cell viability was assessed using the CCK-8 assay (Dojindo Laboratories, Kumamoto, Japan): 10% (v/v) CCK-8 reagent was added to each well, followed by incubation for 30 min at 37 °C. The absorbance was measured at 450 nm with a reference wavelength of 650 nm using a microplate reader (BioTek Instruments, Winooski, VT, USA).

[3] = tested on: iNOS mRNA expression in RAW 264.7 cells; experiment: LPS-induced iNOS mRNA expression by RT-qPCR; assay type: cell-based, mouse; settings: RAW 264.7, 0.3–10 μM, LPS 24 h
Procedure: (§1) RAW 264.7 cells (2 × 10^6 cells) were seeded into 30 mm petri dishes. After the cells adhered to the dishes for 2 h, compound 10 at concentrations of 0.3, 1, 3, and 10 μM was added, and the cells were cultured in an incubator at 37 °C for 2 h. Then, 100 ng/mL of LPS was added and the cells were co-cultured for 24 h. The cells were collected into 1.5 mL EP tubes, and total RNA was extracted using an RNA extraction kit. Then, the concentration of the total RNA was determined with a nucleic acid quantifier, and the RNA was reverse transcribed into the corresponding cDNA.
(§2) According to the operation procedures of the rapid reverse transcription kit, 1 μg of total RNA and 1 μL of dNTP Mixture were first added into a PCR tube. Then, RNase-free dH2O was added until the total volume of the solution reached 10 μL. After mixing evenly, the mixture was incubated at 65 °C for 5 min and then immediately placed on ice for ice-bathing. Subsequently, 4 μL of 5 × PrimeScript® Buffer, 0.5 μL of RNase Inhibitor (40 U/μL), 1 μL of PrimeScript® RTase (200 U/μL), and 4.5 μL of RNase Free dH2O were added to make the entire solution system reach 20 μL. […]
(§3) The reaction system mixture was prepared using a real-time quantitative PCR kit. […]

[4] = tested on: IL-1β expression in RAW 264.7 cells; experiment: LPS-induced IL-1β expression by real time PCR; assay type: cell-based, mouse; settings: RAW 264.7, 0.3–10 μM, LPS 24 h
Procedure: as §1, §2, §3

[5] = tested on: IL-6 expression in RAW 264.7 cells; experiment: LPS-induced IL-6 expression by real time PCR; assay type: cell-based, mouse; settings: RAW 264.7, 0.3–10 μM, LPS 24 h
Procedure: as §1, §2, §3

[6] = tested on: TNF-α expression in RAW 264.7 cells; experiment: LPS-induced TNF-α expression by real time PCR; assay type: cell-based, mouse; settings: RAW 264.7, 0.3–10 μM, LPS 24 h
Procedure: as §1, §2, §3

NF-κB p65 = target: T1, NF-κB p65 (Mus musculus, UniProt Q04207); experiment: DNA-binding activity of p65 (NF-κB p65 ELISA kit); assay type: cell-based; settings: 0.3–10 μM, p < 0.01 vs. LPS-only group
T1 construct: endogenous in cells; host or cells: RAW 264.7 murine macrophages, LPS-stimulated
Procedure: To investigate the anti-inflammatory mechanism of compound 10, we quantified its inhibitory effect on the DNA-binding activity of p65 using a TransAM® NF-κB p65 ELISA kit (Ruixin Biotechnology, Guangzhou, China).
RAW 264.7 macrophages were seeded into 60 mm diameter culture dishes at a density of 3.0 × 10^6 cells/dish in complete DMEM and allowed to adhere for 2 h at 37 °C under 5% CO2. Cells were pretreated with Compound 10 (0.3–10 μM in DMSO, final solvent concentration < 0.1%) for 2 h, followed by stimulation with ultrapure LPS for an additional 2 h. The supernatant of cell culture medium was collected, and then NF-κB p65 binding activity of NF-κB in extracts was detected with NF-κB p65 kit (RUIXIN, Quanzhou, China).

[7] = tested on: ROS production in RAW264.7 cells; experiment: LPS-induced ROS production (DCFH-DA fluorescent probe); assay type: cell-based, mouse; settings: RAW264.7, LPS 24 h, concentrations that are not cytotoxic (0.3–10 μM)
Procedure: RAW264.7 cells were seeded into black 96-well plates at a density of 5 × 10^4 cells per well and cultured for 2 h until they adhered to the plate. Subsequently, compound 10 at concentrations of 0.3, 1, 3, and 10 μM was added respectively, and the cells were cultured for another 2 h. Then, 100 ng/mL of LPS was added and the cells were co-cultured in an incubator at 37 °C for 24 h. After that, the production of ROS was detected. The cell culture medium in the 96-well plates was removed, and then […] of the fluorescent probe DCFH-DA solution diluted to 10 μM with serum-free DMEM medium was added. The plates were placed in the cell incubator and incubated in the dark for 30 min. Subsequently, the supernatant was removed and the cells were washed three times with phosphate-buffered saline (PBS). Finally, detection was carried out using a microplate reader (BioTek, Winooski, VT, USA) with an excitation wavelength of 488 nm and an emission wavelength of 525 nm.

[8] = tested on: nitric oxide production in LPS-stimulated RAW 264.7 macrophages; experiment: Inhibition of NO production in LPS-stimulated RAW 264.7 macrophages (Griess reaction); assay type: cell-based, mouse; settings: re-evaluation within 0.3–10 μM, RAW264.7, LPS
[9] = RAW264.7, LPS-stimulated RAW 264.7 macrophages, LPS 100 ng/mL, 24 h

T1 sequence (Q04207 whole entry): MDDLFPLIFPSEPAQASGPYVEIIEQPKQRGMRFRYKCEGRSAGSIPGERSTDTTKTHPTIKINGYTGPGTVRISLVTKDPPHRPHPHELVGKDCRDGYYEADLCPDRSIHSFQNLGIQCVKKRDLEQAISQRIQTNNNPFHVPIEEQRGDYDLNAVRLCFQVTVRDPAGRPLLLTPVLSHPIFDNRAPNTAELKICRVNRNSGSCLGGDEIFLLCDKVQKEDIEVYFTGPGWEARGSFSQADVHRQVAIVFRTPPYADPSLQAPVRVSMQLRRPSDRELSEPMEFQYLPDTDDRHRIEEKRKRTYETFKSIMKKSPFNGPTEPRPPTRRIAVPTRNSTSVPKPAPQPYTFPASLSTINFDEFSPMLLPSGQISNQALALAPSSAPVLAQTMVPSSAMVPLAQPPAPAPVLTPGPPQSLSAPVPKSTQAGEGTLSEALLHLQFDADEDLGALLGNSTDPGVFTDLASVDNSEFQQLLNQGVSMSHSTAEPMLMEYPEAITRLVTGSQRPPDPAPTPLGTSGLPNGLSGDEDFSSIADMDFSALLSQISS

IC50 [1, 9]: 26.2 µM
SMILES: C[C@@H]1CC[C@H]2C(C)(C)[C@H](O)[C@H](O)C[C@]2(C)[C@@]12Cc1c(O)cc3c(c1O2)CN(CCc1ccc(O)cc1)C3=O [Compound 1, Chartarlactam U]

IC50 [1, 9]: 11.1 µM
SMILES: C[C@@H]1CC[C@H]2C(C)(C)[C@H](O)CC[C@]2(C)[C@@]12Cc1c(O)cc3c(c1O2)CN(C(CCC(=O)O)C(=O)O)C3=O (some centres unmarked) [Compound 13]

SMILES: C[C@@H]1CC[C@H]2C(C)(C)[C@H](O)CC[C@]2(C)[C@@]12Cc1c(O)cc3c(c1O2)COC3=O [stachybotrylactone]
IC50 [2]: 17.9 µM

SMILES: C[C@@H]1CC[C@H]2C(C)(C)[C@H](O)[C@H](O)C[C@]2(C)[C@@]12Cc1c(O)cc3c(c1O2)CNC3=O [Compound 14]
cytotoxicity (qualitative) (RAW 264.7 cells): low cytotoxicity

SMILES: CC(=O)O[C@@H]1[C@H](O)C[C@@]2(C)[C@@H](CC[C@@H](C)[C@]23Cc2c(O)cc(CO)c(C=O)c2O3)C1(C)C [stachybotrysin C]
IC50 [2]: 27.2 µM

IC50 [1, 9]: 22.4 µM
SMILES: CC1CCC2C(C)(C)C(O)C(O)CC2(C)C12Cc1c(O)cc3c(c1O2)C(=O)NC3=O (centres unmarked) [Compound 3, Chartarlactam W]

SMILES: C[C@@H]1CC[C@H]2C(C)(C)[C@H](O)CC[C@]2(C)[C@@]12Cc1c(O)cc3c(c1O2)CNC3=O [Compound 15]
cytotoxicity (qualitative) (RAW 264.7 cells): low cytotoxicity

SMILES: COC(=O)CCCN1Cc2c(cc(O)c3c2O[C@]2(C3)[C@H](C)CC[C@H]3C(C)(C)[C@H](O)CC[C@@]32C)C1=O [stachybonoid F]
IC50 [2]: 52.5 µM

IC50 [1, 9]: 12.4 µM
DNA-binding activity of p65 (NF-κB p65): significant suppression of p65 binding
SMILES: CCC(C)C(C(=O)O)N1Cc2c(cc(O)c3c2O[C@]2(C3)[C@H](C)CC[C@H]3C(C)(C)[C@H](O)[C@H](O)C[C@@]32C)C1=O (some centres unmarked) [Compound 10]
NO production inhibition at 10 μM [1]: potent inhibitory effects
cytotoxicity over the tested concentration range (RAW 264.7 cells; up to 30 μM (0.3–30 μM in the abstract, 3 to 30 μM)): no detectable cytotoxicity
LPS-induced iNOS mRNA expression [3]: significant suppression
IL-1β expression [4]: dose-dependent attenuation
IL-6 expression [5]: dose-dependent attenuation
TNF-α expression [6]: dose-dependent attenuation
ROS production [7]: capable of inhibiting the production of ROS
inhibitory effect on NO production at 0.3 μM [8]: potent inhibitory effect on NO production

IC50 [1, 9]: 4.4 µM
SMILES: CC(C)CC(C(=O)O)N1Cc2c(cc(O)c3c2O[C@]2(C3)[C@H](C)CC[C@H]3C(C)(C)[C@H](O)[C@H](O)C[C@@]32C)C1=O (some centres unmarked) [Compound 11]
NO production inhibition at 10 μM [1]: potent inhibitory effects
NO-inhibitory effect [1]: significant NO-inhibitory effects
cytotoxicity at 30 μM (RAW 264.7 cells): manifested cytotoxicity

SMILES: CC(C)CC(C(=O)O)N1Cc2c(cc(O)c3c2O[C@]2(C3)[C@H](C)CC[C@H]3C(C)(C)[C@H](O)CC[C@@]32C)C1=O (some centres unmarked) [Compound 12]
IC50 ([1]; RAW264.7, 24 h): 6.5 µM
NO production inhibition at 10 μM [1]: potent inhibitory effects
NO-inhibitory effect [1]: significant NO-inhibitory effects
cytotoxicity at 30 μM (RAW 264.7 cells): manifested cytotoxicity
